The test system of assay [1] is Mus musculus. Nature of the assay: Antiinflammatory activity against C57BL/6 mouse acute inflammation model assessed as reduction in LPS induced lung destruction at 50 to 100 mg/kg, po pre-administered for 2 hrs followed by LPS stimulation for 6 hrs. Format: functional, organism-based. The note with it: dose 50-100 mg/kg, time 8.0 hrs.
Assay [2] relates to Mus musculus. Put plainly: Antiinflammatory activity against LPS-induced C57BL/6 mouse acute inflammation model assessed as rescue of increased inflammatory cell infiltration in kidney at 50 to 100 mg/kg, po pre-administered for 2 hrs followed by LPS stimulation for 6 hrs. The following applies: dose 50-100 mg/kg, time 8.0 hrs. Format: functional, organism-based.
The test system of assay [3] is Mus musculus. Nature of the assay: Antiinflammatory activity against LPS-induced C57BL/6 mouse acute inflammation model assessed as decrease in number of interstitial vacuoles at 100 mg/kg, po pre-administered for 2 hrs followed by LPS stimulation for 6 hrs. Format: functional, organism-based. The following applies: time 8.0 hrs.
Assay [4] deals with Bromodomain-containing protein 4 (Homo sapiens, UniProt O60885). Put plainly: Inhibition of human recombinant BRD4 BD1 (42 to 167 residues) extracted from Escherichia coli BL21 (DE3) at 10 uM incubated for 2 hrs by TR-FRET assay relative to control. Background: In TR-FRET formats the signal depends on donor and acceptor labels being close together.

Calls of active or inactive are those of the source. The calls are words filed in the database; no cut-off is given here.

The values below come from ChEMBL document CHEMBL6121006, “Marine natural product-inspired discovery of novel BRD4 inhibitors with anti-inflammatory activity” (Eur J Med Chem, 2025).

As to `COc1ccc(/C=C/c2nc3cc(OC)cc(OC)c3c(=O)[nH]2)cc1`, the result in the assay on Mus musculus [1], in the assay on Mus musculus [2] and in the assay with Mus musculus [3] was Active. Moreover, the inhibition – broadly, how much of the control response was suppressed – in assay [4] came to 81%.
